From ChEMBL document CHEMBL5143575, “Anti-Lea monoclonal antibody SPM 522 recognizes an extended Lea epitope” (Bioorg Med Chem, 2022) come the findings set out here.

Test [1] can be described thus: Inhibition of (Le(a)Le(x))14-BSA conjugate binding to mouse Anti-Le(a) monoclonal antibody SPM 522 preincubated with mAb for 1 hr followed by incubation with immobilized antigen BSA-conjugate for 3 hrs by competitive ELISA. A general note: ELISA stands for enzyme-linked immunosorbent assay.
A further test is filed under the species Mus musculus. The experiment in a line: Inhibition of (Le(a)Le(x))14-BSA conjugate binding to mouse Anti-Le(a) monoclonal antibody SPM 522 assessed as change in free energy preincubated with mAb for 1 hr followed by incubation with immobilized antigen BSA-conjugate for 3 hrs by competitive ELISA relative to control. The settings on record: time 4.0 hrs.

Broadly, the IC50 is the point on the concentration scale where inhibition reaches its midpoint. Lower therefore signals greater potency in that assay.

Consider `CO[C@@H]1O[C@H](CO)[C@H](O)[C@H](O[C@@H]2O[C@H](CO)[C@@H](O)[C@H](O[C@@H]3O[C@H](CO)[C@H](O)[C@H](O)[C@H]3O)[C@H]2NC(C)=O)[C@H]1O`, for which the IC50 in test [1] came out at 538 µM. Further, the deltaG in the test filed under Mus musculus came out at 1.8 kcal/mol.

On to `CO[C@@H]1O[C@H](CO)[C@@H](O[C@@H]2O[C@@H](C)[C@@H](O)[C@@H](O)[C@@H]2O)[C@H](O[C@@H]2O[C@H](CO)[C@H](O)[C@H](O)[C@H]2O)[C@H]1NC(C)=O`, for which the IC50 in test [1] came out at 3090 µM. Further, the deltaG in the test listed under Mus musculus was determined as 0 kcal/mol.

As for `CCCCCCO[C@@H]1O[C@H](CO)[C@@H](O[C@@H]2O[C@H](CO)[C@H](O)[C@H](O[C@@H]3O[C@H](CO)[C@@H](O)[C@H](O[C@@H]4O[C@H](CO)[C@H](O)[C@H](O)[C@H]4O)[C@H]3NC(C)=O)[C@H]2O)[C@H](O[C@@H]2O[C@@H](C)[C@@H](O)[C@@H](O)[C@@H]2O)[C@H]1NC(C)=O` (stereo in doubt), the concentration for half-maximal inhibition (IC50) in test [1] was found to be 1350 µM. The deltaG in the test listed under Mus musculus is 2.4 kcal/mol.

`CCCCCCO[C@@H]1O[C@H](CO)[C@@H](O[C@@H]2O[C@H](CO)[C@H](O)[C@H](O[C@@H]3O[C@H](CO)[C@@H](O[C@@H]4O[C@@H](C)[C@@H](O)[C@@H](O)[C@@H]4O)[C@H](O[C@@H]4O[C@H](CO)[C@H](O)[C@H](O)[C@H]4O)[C@H]3NC(C)=O)[C@H]2O)[C@H](O[C@@H]2O[C@@H](C)[C@@H](O)[C@@H](O)[C@@H]2O)[C@H]1NC(C)=O` yielded an IC50 in test [1] of 23 µM. Also, the deltaG in the test filed under Mus musculus came to 0 kcal/mol.

In turn, `CCCCCCO[C@@H]1O[C@H](CO)[C@@H](O[C@@H]2O[C@H](CO)[C@H](O)[C@H](O[C@@H]3O[C@H](CO)[C@@H](O)[C@H](O[C@@H]4O[C@H](CO)[C@H](O)[C@H](O)[C@H]4O)[C@H]3NC(C)=O)[C@H]2O)[C@H](O)[C@H]1NC(C)=O` came in with an IC50 in test [1] of 1200 µM. For the same compound, in the test listed under Mus musculus, the deltaG came to 2.3 kcal/mol.

On to `CO[C@@H]1O[C@H](CO)[C@@H](O[C@@H]2O[C@@H](C)[C@H](O)[C@@H](O)[C@H]2O)[C@H](O[C@@H]2O[C@H](CO)[C@H](O)[C@H](O)[C@H]2O)[C@H]1NC(C)=O`, for which, in test [1], the IC50 stood at 7020 µM. Moreover, the deltaG in the test listed under Mus musculus worked out at 0.5 kcal/mol.
